Results taken from patent US20170355705A1 (GlaxoSmithKline Intellectual Property (No.2) Limited, priority 2014, published 2017).

Molecular target: T1, SIRT1 (Homo sapiens, UniProt Q96EB6)
T1 sequence (Q96EB6 1-747): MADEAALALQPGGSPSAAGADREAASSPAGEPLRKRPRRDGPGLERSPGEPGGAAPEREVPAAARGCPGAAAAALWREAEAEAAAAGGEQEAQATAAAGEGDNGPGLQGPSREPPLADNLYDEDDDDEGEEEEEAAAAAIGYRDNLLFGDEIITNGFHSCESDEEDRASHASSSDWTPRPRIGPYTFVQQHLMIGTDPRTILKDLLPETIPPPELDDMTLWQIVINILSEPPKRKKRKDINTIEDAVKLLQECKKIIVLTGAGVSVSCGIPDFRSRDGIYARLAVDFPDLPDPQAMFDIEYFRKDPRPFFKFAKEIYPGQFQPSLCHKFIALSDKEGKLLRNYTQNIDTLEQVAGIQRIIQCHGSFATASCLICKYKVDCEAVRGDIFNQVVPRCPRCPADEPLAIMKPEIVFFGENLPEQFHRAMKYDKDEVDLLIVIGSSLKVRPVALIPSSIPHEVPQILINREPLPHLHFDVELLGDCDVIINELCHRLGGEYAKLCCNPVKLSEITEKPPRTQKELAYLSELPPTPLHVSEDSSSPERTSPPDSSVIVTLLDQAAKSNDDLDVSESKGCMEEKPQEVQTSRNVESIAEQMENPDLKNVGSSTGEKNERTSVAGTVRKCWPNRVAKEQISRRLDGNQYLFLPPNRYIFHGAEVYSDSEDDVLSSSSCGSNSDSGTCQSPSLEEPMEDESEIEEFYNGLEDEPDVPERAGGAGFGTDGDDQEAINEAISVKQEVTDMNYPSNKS
Assay: Trp mass spectrometry assay of SIRT1 activity (EC1.5, percent maximum activation)
Type: biochemical
Details: Trp mass spectrometry assay; for TRP Activity (EC1.5): EC1.5 = concentration giving 150% activation of SIRT1; for TRP MAX RESP (percent maximum fold activation): percent maximum activation of SIRT1
In short: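 MS readout: O-acetyl-ADP-ribose (or deacetylated peptide) formed by His-tagged SIRT1 (BL21(DE3)-expressed) on 5TMR-Trp p53-based peptide, 25 min, formic acid stop. EC1.5 = concentration raising activity 50% over no-compound control; % max activation vs control = 100%.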

| SMILES | TRP Activity (EC1.5) | TRP MAX RESP (percent maximum fold activation) |
| --- | --- | --- |
| O=C(Nc1ccnc(OC[C@@H](O)CO)n1)N1c2nc(-c3cccc(C(F)(F)F)c3)ccc2N2CC[C@H]1C2 [Example 134, (4S)-N-(2-((S)-2,3-dihydroxypropoxy)pyrimidin-4-yl)-7-(3-(trifluoromethyl)phenyl)-3,4-dihydro-1,4-methanopyrido[2,3-b][1,4]diazepine-5(2H)-carboxamide] | A (EC1.5<1 μM) | A (Fold activation ≧150%) |
| Cc1cc(-c2ccc3c(n2)N(C(=O)Nc2cnccn2)[C@H]2CCN3C2)cc(C)n1 [Example 135, (4S)-7-(2,6-dimethylpyridin-4-yl)-N-(pyrazin-2-yl)-3,4-dihydro-1,4-methanopyrido[2,3-b][1,4]diazepine-5(2H)-carboxamide] |  | A (Fold activation ≧150%) |
| O=C(Nc1cnccn1)N1c2nc(-c3ccnc(C4CC4)c3)ccc2N2CC[C@H]1C2 [Example 136, (4S)-7-(2-cyclopropylpyridin-4-yl)-N-(pyrazin-2-yl)-3,4-dihydro-1,4-methanopyrido[2,3-b][1,4]diazepine-5(2H)-carboxamide] | A (EC1.5<1 μM) | A (Fold activation ≧150%) |
| CC(C)c1cc(-c2ccc3c(n2)N(C(=O)Nc2cnccn2)[C@H]2CCN3C2)ccn1 [Example 137, (4S)-7-(2-isopropylpyridin-4-yl)-N-(pyrazin-2-yl)-3,4-dihydro-1,4-methanopyrido[2,3-b][1,4]diazepine-5(2H)-carboxamide] | A (EC1.5<1 μM) | A (Fold activation ≧150%) |
| Cc1cc(-c2ccc3c(n2)N(C(=O)Nc2cn(C)nn2)[C@H]2CCN3C2)ccn1 [Example 138, (4S)-N-(1-methyl-1H-1,2,3-triazol-4-yl)-7-(2-methylpyridin-4-yl)-3,4-dihydro-1,4-methanopyrido[2,3-b][1,4]diazepine-5(2H)-carboxamide] | B (EC1.5 1-25 μM) | A (Fold activation ≧150%) |
| CCc1cc(-c2ccc3c(n2)N(C(=O)Nc2cnccn2)[C@H]2CCN3C2)ccn1 [Example 139, (4S)-7-(2-ethylpyridin-4-yl)-N-(pyrazin-2-yl)-3,4-dihydro-1,4-methanopyrido[2,3-b][1,4]diazepine-5(2H)-carboxamide] | A (EC1.5<1 μM) | A (Fold activation ≧150%) |
| CCOc1cc(-c2ccc3c(n2)N(C(=O)Nc2cnccn2)[C@H]2CCN3C2)ccn1 [Example 140, (4S)-7-(2-ethoxypyridin-4-yl)-N-(pyrazin-2-yl)-3,4-dihydro-1,4-methanopyrido[2,3-b][1,4]diazepine-5(2H)-carboxamide] | B (EC1.5 1-25 μM) | A (Fold activation ≧150%) |
| COc1cc(-c2ccc3c(n2)N(C(=O)Nc2cnccn2)[C@H]2CCN3C2)ccn1 [Example 141, (4S)-7-(2-methoxypyridin-4-yl)-N-(pyrazin-2-yl)-3,4-dihydro-1,4-methanopyrido[2,3-b][1,4]diazepine-5(2H)-carboxamide] | B (EC1.5 1-25 μM) | A (Fold activation ≧150%) |
| COc1cc(-c2ccc3c(n2)N(C(=O)Nc2cnccn2)[C@H]2CCN3C2)cc(C)n1 [Example 142, (4S)-7-(2-methoxy-6-methylpyridin-4-yl)-N-(pyrazin-2-yl)-3,4-dihydro-1,4-methanopyrido[2,3-b][1,4]diazepine-5(2H)-carboxamide] | B (EC1.5 1-25 μM) | A (Fold activation ≧150%) |
| Cc1cc(-c2ccc3c(n2)N(C(=O)Nc2ncn(C)n2)[C@H]2CCN3C2)ccn1 [Example 143, (4S)-N-(1-methyl-1H-1,2,4-triazol-3-yl)-7-(2-methylpyridin-4-yl)-3,4-dihydro-1,4-methanopyrido[2,3-b][1,4]diazepine-5(2H)-carboxamide] | B (EC1.5 1-25 μM) | A (Fold activation ≧150%) |
| CNc1cc(-c2ccc3c(n2)N(C(=O)Nc2cnccn2)[C@H]2CCN3C2)ccn1 [Example 144, (4S)-7-(2-(methylamino)pyridin-4-yl)-N-(pyrazin-2-yl)-3,4-dihydro-1,4-methanopyrido[2,3-b][1,4]diazepine-5(2H)-carboxamide] | B (EC1.5 1-25 μM) | A (Fold activation ≧150%) |
| Cc1cc(-c2ccc3c(n2)N(C(=O)Nc2nccc4[nH]cnc24)[C@H]2CCN3C2)ccn1 [Example 145, (4S)-N-(1H-imidazo[4,5-c]pyridin-4-yl)-7-(2-methylpyridin-4-yl)-3,4-dihydro-1,4-methanopyrido[2,3-b][1,4]diazepine-5(2H)-carboxamide] | B (EC1.5 1-25 μM) | A (Fold activation ≧150%) |
| O=C(Nc1cnccn1)N1c2nc(-c3ccc(CO)nc3)ccc2N2CC[C@H]1C2 [Example 147, (4S)-7-(6-(hydroxymethyl)pyridin-3-yl)-N-(pyrazin-2-yl)-3,4-dihydro-1,4-methanopyrido[2,3-b][1,4]diazepine-5(2H)-carboxamide] | B (EC1.5 1-25 μM) | A (Fold activation ≧150%) |
| Cc1cc(-c2ccc3c(n2)N(C(=O)Nc2cnc4c(c2)OCCO4)[C@H]2CCN3C2)ccn1 [Example 148, (4S)-N-(2,3-dihydro-[1,4]dioxino[2,3-b]pyridin-7-yl)-7-(2-methylpyridin-4-yl)-3,4-dihydro-1,4-methanopyrido[2,3-b][1,4]diazepine-5(2H)-carboxamide] |  | A (Fold activation ≧150%) |
| Cc1cc(-c2ccc3c(n2)N(C(=O)N2CCOCC2)[C@H]2CCN3C2)ccn1 [Example 150, ((4S)-7-(2-methylpyridin-4-yl)-3,4-dihydro-1,4-methanopyrido[2,3-b][1,4]diazepin-5(2H)-yl)(morpholino)methanone] | C (EC1.5>25 μM) | B (Fold Activation <150%) |
| Cc1cc(-c2ccc3c(n2)N(C(=O)N2CCCCC2)[C@H]2CCN3C2)ccn1 [Example 151, ((4S)-7-(2-methylpyridin-4-yl)-3,4-dihydro-1,4-methanopyrido[2,3-b][1,4]diazepin-5(2H)-yl)(piperidin-1-yl)methanone] | C (EC1.5>25 μM) | B (Fold Activation <150%) |
| Cc1cc(-c2ccc3c(n2)N(C(=O)Nc2nccc4nccnc24)[C@H]2CCN3C2)ccn1 [Example 152, (4S)-7-(2-methylpyridin-4-yl)-N-(pyrido[3,4-b]pyrazin-5-yl)-3,4-dihydro-1,4-methanopyrido[2,3-b][1,4]diazepine-5(2H)-carboxamide] | B (EC1.5 1-25 μM) | A (Fold activation ≧150%) |
